Key:
[1] = molecular target: T1, CXCR2 (Homo sapiens, UniProt P25025); assay: PathHunter CXCR2 β-arrestin cell assay (CXCL8 agonist, chemiluminescence); type: cell-based; settings: CXCR2 β-arrestin cells, CXCL8 at EC80
T1 sequence (P25025 1-360): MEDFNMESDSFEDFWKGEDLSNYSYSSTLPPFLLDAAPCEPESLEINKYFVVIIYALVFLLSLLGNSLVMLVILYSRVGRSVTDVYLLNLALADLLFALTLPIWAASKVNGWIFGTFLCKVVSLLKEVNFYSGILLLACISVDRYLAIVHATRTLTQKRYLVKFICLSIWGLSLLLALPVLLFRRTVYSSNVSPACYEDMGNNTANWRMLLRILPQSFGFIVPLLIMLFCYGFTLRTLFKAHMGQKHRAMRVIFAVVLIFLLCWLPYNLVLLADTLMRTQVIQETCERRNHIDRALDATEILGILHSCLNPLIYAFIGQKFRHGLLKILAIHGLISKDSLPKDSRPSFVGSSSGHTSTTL
Protocol: CXCR2 β-arrestin cells (DiscoverX) of PathHunter® were cultured in standard conditions and inoculated at 20 μL/well to a 384-well white microplate. Before testing, the cells were incubated at 37° C. for an appropriate period of time. The test compound was serially 3-fold diluted in DMSO to give 8 concentrations. Shortly before testing, the serially diluted test samples were further diluted with test buffer to 5 folds of the test concentration. 5 μL of further diluted test samples were added to the cells and the cells were incubated at 37° C. for 30 min. The concentration of vehicle was 1%. 5 μL of 6×EC80 agonist (CXCL8) buffer was then added to the cells, and the cells were incubated at 37° C. for 90 min. The test signal was generated by adding 15 μL (50% v/v) of PathHunter detection mixture reagent in one portion and subsequently incubating the cells for 1 h. The chemiluminescence signal of the microplate was read by a PerkinElmer Envision™ instrument. The biological activities of the test compounds were analyzed by CBIS data analysis kit (ChemInnovation, CA), shown as IC50 values.

[2] = Plasma pharmacokinetic assay in rats; type: in vivo, Lewis rats
Protocol: In this plasma pharmacokinetic assay, 4 male Lewis rats were used and randomized into two groups, with 2 animals in each group. The animals in the first group were given 2 mg/kg of the test compound by intravenous injection and the animals in the second group were given 10 mg/kg of the test compound by intragastric administration. An aqueous solution of 1% DMSO/20% PEG400/79% (HP-b-CD) was used as the vehicle, and the resulting intravenous and intragastric formulations (adjusted to pH=2.78) were clear solutions. Blood samples were collected from saphenous veins of animals at 0.0830, 0.25, 0.5, 1, 2, 4, 6, 8 and 24 hours post-dose for the intravenous injection group, and at 0.25, 0.5, 1, 2, 4, 6, 8 and 24 hours post-dose for the intragastric administration group, with 3 samples at each time point. Plasma samples of the intragastric administration group were cryopreserved at −80° C. and thawed before LC-MS/MS sample analysis. Acetonitrile containing internal standard was added to the thawed plasma samples at a certain ratio to precipitate proteins.
The mixture was centrifuged, and the supernatant was subjected to analysis by LC-MS/MS. An API4000 or 5500 system equipped with ACQUITY UPLC BEH C18 (2.1×50 mm, 1.7 μm) column and ESI positive or negative ion source was used. Each analysis batch included standard samples with 8 concentrations. A curve of the ratio of the peak areas of the test compound to the internal standard (IS) vs. the concentration of the test compound in the plasma sample was plotted, and linear regression was performed using 1/X^2 as weighting coefficient to give a regression equation between the measured response and the concentration. Each analysis batch also included corresponding quality control samples. Data processing was performed using Phoenix 6.3 WinNonlin® to give corresponding PK parameters.

[3] = system: PPE-induced SD rat COPD model; assay: Therapeutic effect on PPE-induced COPD model; type: in vivo, SD rats; settings: 30 mpk intragastric daily, 4 weeks
Text: • To test the therapeutic effect of the compound on PPE-induced SD rat COPD model. Materials: • Animals: SD rats (male, 160-180 g, 6 weeks age) • Test compounds: porcine pancreatic elastase (Sigma, 0.068 U/μL); Danirixin, compound 1. • Grouping: 1) vehicle group • 2) COPD model group (porcine pancreatic elastase modeling group/solvent group) • 3) PPE+Danirixin (30 mpk) • 4) PPE+compound 1 (10 mpk) • 5) PPE+compound 1 (30 mpk) Procedures: • 1. Modeling: PPE was given retrolingually. • 2. Administration: an aqueous solution of 1% DMSO/20% PEG400/79% (HP-b-CD) was used as the vehicle, and the drugs were administrated intragastrically everyday at a volume of 2 mL/rat for 4 weeks. • 3. Endpoint: On day 29, pulmonary function test, sample collection, and inflammatory cell count in bronchoalveolar lavage fluid.
Bronchoalveolar lavage: The rats were sacrificed, and dissected at the neck. Trachea intubation was performed. 1 mL of cold […] at 4° C. was infused for 3 lavages, and the lavage fluids were combined. The combined lavage fluids were centrifuged at 1200 rpm/min for 5 min, and the supernatant was discarded. The cell suspension was collected;

[4] = system: rat COPD model induced by smoking combined with lipopolysaccharide; assay: Anti-inflammation effect in rat COPD model induced by smoking combined with lipopolysaccharide; type: in vivo, SD rats; settings: Danirixin 30 mpk; crystalline form A 3-30 mpk
Protocol: Modeling: the animal model was prepared by exposing the rats to cigarette smoke once daily for 14 days. The rats were smoked for 90 min per day in 2 portions with a break of 10 min. 18 Marlboro cigarettes (with a tar content of 11 mg) were given each time. LPS was administered dropwise via airway at 200 μg/rat once weekly. The administration dropwise was performed on days 6 and 13 of smoke exposure (on the day of LPS administration dropwise, only LPS was administered dropwise for modeling without smoke exposure). • 2. Administration: an aqueous solution of 1% DMSO/20% PEG400/79% (HP-b-CD) was used as the vehicle, and the drugs were administrated intragastrically everyday at a volume of 5 mL/kg for 2 weeks. • 3. Endpoint: On day 15, pulmonary function test, sample collection, inflammatory cell count in bronchoalveolar lavage fluid, pathological analysis, and lung tissue MPO and MMP9 assay were carried out. Procedures of Pulmonary Function Test:
After the last smoking and modeling were finished, pulmonary function was tested for each group of animals on the second day, and pulmonary resistance and compliance were detected under stimulation of methacholine chloride at different doses. The animals were anesthetized by intraperitoneal injection with […] of 25% urethane. After the animals were deeply anesthetized, airway intubation was performed by separating airways, and meanwhile, jugular veins were separated. After breathing stably, the animals were put into a plethysmograph. Drug administration pipelines were inserted into the separated jugular veins. After the animals were in rest state for 1-2 min and the breathing curves were stable, then detection was started. Rats were administered with methacholine chloride at doses of 0, 0.0083, 0.025, 0.075, 0.225, 0.675 mg/kg by jugular vein intubation. The increase in airway resistance and decrease in pulmonary compliance were observed after each administration. After 1-2 min, the parameters returned to near the baseline of the previous concentration of methacholine chloride, and methacholine chloride of the next concentration was injected. After the detection was finished, subsequent alveolar lavage and sample collection were performed.
After the pulmonary function test was finished, the rats were sacrificed by cervical dislocation. After the animals were confirmed dead, the lungs were carefully separated, a lavage syringe was inserted into the main trachea and fixed with 2-0 silk thread. The right lung was ligated. 5 mL of low-temperature normal saline was slowly injected through the lavage syringe. The normal saline was slowly extracted after confirming that the normal saline was injected into the left lung. The operation was repeated twice. By the three lavages, a total of 15 mL of normal saline was injected for lavage. The obtained BALF was injected into a 15 mL centrifuge tube and preserved in a storage box at 4° C. for subsequent BALF cells counting.
After BALF was collected, the right lung which was not infused was taken off and weighted. The two upper lobes of the right lung were put into a cryopreservation tube, frozen in a freezer at −80° C. for later use. Lower lobe tissues were fixed in formalin.
1 mL of homogenously mixed BALF was added into 1 mL of a solution of 1% glacial acetic acid in normal saline. Cells were counted using a hemocytometer. The remaining lavage fluid was centrifuged at 1500 r/min for 10 min at 4° C. to give a cell mass. The cells were resuspended in 200 μL of normal saline, uniformly coated on a glass slide and stained by Wright-Giemsa stain. Macrophages, neutrophils and lymphocytes in a total of 200 cells were counted under a microscope, and the proportions of the cells was calculated. For lavage fluid collection, animals failing the lavage fluid collection were not summarized. […]

Structure (SMILES)	IC50 [1]	half-life ([2]; rat, plasma, po, male Lewis rats, 10 mg/kg intragastric, read-out: Intragastric administration Half life (T1/2) (converted))	Cmax ([2]; rat, plasma, po, male Lewis rats, 10 mg/kg intragastric, read-out: Intragastric administration Maximum plasma concentration (Cmax))	AUC ([2]; rat, plasma, po, male Lewis rats, 10 mg/kg intragastric, read-out: Intragastric administration Plasma exposure (AUC))	clearance ([2]; rat, plasma, male Lewis rats, 2 mg/kg intravenous, read-out: Intravenous injection Clearance (CL))	Pharmacokinetic properties (in words) ([2]; rats)	Count of immune inflammatory cells (neutrophils, macrophages, lymphocytes) in bronchoalveolar lavage fluid [3]	Anti-inflammatory effect (summary) [4]
O=C(Nc1ccc(Cl)c(S(=O)(=O)[C@H]2CCCNC2)c1O)N[C@@H]1CCCc2cc(C(F)(F)F)oc21 [Compound 1]	22 nM	4.22 h	3 µM	31.3 µM·h	5.07 mL/min/kg	good pharmacokinetic properties		
Cc1c(F)cccc1NC(=O)Nc1ccc(Cl)c(S(=O)(=O)[C@H]2CCCNC2)c1O [Danirixin, reference compound]							significantly reduced	significant anti-inflammatory effect

Source: US12577235B2, “Crystalline form of CXCR2 antagonist and application thereof” (Shenzhen Optimum Biological Technology Co., Ltd, priority 2019, dated 2026)
